{"source": "patent US20130096212A1", "about": "“Method and a Kit to Predict Response to Antidepressant Treatment” (UNIVERSITY OF TARTU, priority 2011, published 2013)", "key": {"[1]": {"test_system": "MDD patients", "experiment": "Replication sample: MDD patients treated with escitalopram for 12 weeks, MADRS change by rs41271330 genotype", "assay_type": "in vivo, human", "details": "394 patients, SE=3%", "from_the_text": "Replication sample consisted of 394 patients treated with escitalopram for 12 weeks. All the patients were of European origin. […] For validation of significant markers from previous step 5 SNPs were genotyped with pre-designed Taqman assays and one SNP was genotyped with Sanger sequencing. These […] markers were genotyped in the remaining 116 individuals, and tested for association with the clinical outcome. Three different outcome definitions were used: MADRS score at the final visit (week 12), relative change (percentage) in MADRS score since baseline, and absolute change in MADRS score since baseline. For each outcome, a univariate additive regression model was fitted to assess the association, as well as a multivariate model, adjusted for age, gender, age at first depression episode, baseline MADRS and BDI scores. Additionally a mixed-effects longitudinal model was fit for MADRS scores at week 0 to week 12, using a random subject-specific intercept. Also here, both unadjusted and adjusted models were fit. Age at recruitment, gender, age at first depression episode and baseline BDI score appeared to be independently predictive (p<0.05) for at least one of the outcomes after adjusting for other covariates in a multivariate regression model and were therefore used as adjustment variables for genotype-outcome association. […]"}, "[2]": {"test_system": "outpatients with Major Depressive Disorder", "experiment": "12-week open-label escitalopram treatment of MDD outpatients, Estonian sample (MADRS, HAM-D, CGI), also by rs41271330 genotype", "assay_type": "in vivo, human", "details": "for patients with moderate or severe depression (MADRS score 16 or more): end of 12 weeks", "from_the_text": "The study sample consisted of 135 outpatients with Major Depressive Disorder, MDD (mean age 31.1±11.6 years, 68% females) recruited at the Psychiatry Clinic of Tartu University Hospital in Estonia. The diagnosis according to DSM-IV criteria was verified using Mini International Neuropsychiatric Interview (M.I.N.I. 5.0.0) and substantiated by psychiatric history and medical records. At least moderate severity of depression was required for inclusion as indicated by a Montgomery-Asberg Depression Rating Scale (MADRS) total score of 22 or higher. MDD patients with a secondary current comorbid anxiety disorder were included in this study, except for obsessive-compulsive disorder, posttraumatic stress disorder, or panic disorder, and these comprised 51% of the sample. Patients were excluded if they met diagnostic criteria for any of the following: bipolar disorder, psychotic disorder or features, current eating disorders, mental retardation, any pervasive developmental disorder or cognitive disorder, or alcohol or drug abuse-related disorders within 12 months prior to baseline. Additional exclusion criteria were acute infections, neurological or any other unstable general disorders, serious suicide risk, formal behaviour therapy, or systematic psychotherapy, pregnancy or breastfeeding. None of patients was known to have a history of hypersensitivity or non-response to escitalopram or other SSRIs. The Human Studies Ethics Committee of the University of Tartu and State Agency of Medicines had approved the study protocol, which was in accordance with Declaration of Helsinki. All participants provided their written informed consent.\nThe patients were treated with escitalopram 10-20 mg/day for 12 weeks using an open-label, placebo non-controlled study design. No other medications, including anti-inflammatory drugs, were allowed during the study, except for hormonal contraceptives and zolpidem or zopiclone for insomnia. Clinical severity and treatment response were assessed bi-weekly using the MADRS and Clinical Global Impression scale (CGI). Hamilton Depression Scale (HAM-D) was also used as a secondary scale for clinical assessments. Additionally, the patients were asked to evaluate the depressive symptoms on the Beck Depression Inventory (BDI) and possible side effects on the Toronto Side-effect Scale (TSES) at each visit. All patients started treatment with escitalopram at a dose of 10 mg/day for the first 4 weeks. The patients showing at least 50% decline in the MADRS total score at week 4 continued taking 10 mg of escitalopram until the end of study. […] At the end of week 12 the patients were defined as responders if the decrease in both MADRS and HAM-D total scores was at least 50% and score on the CGI improvement scale was 2 or less. The remitters were defined if the scores were less than 12 on the MADRS and less than 8 on the HAM-D accordingly to earlier clinical trials. […] The severity of depressive symptoms and treatment response were rated blindly to genotypes by one psychiatrist. Each visit the patients were also asked to report about their regularity of taking the medication.\nThese 38 markers were genotyped in the remaining 116 individuals, and tested for association with the clinical outcome. Three different outcome definitions were used: MADRS score at the final visit (week 12), relative change (percentage) in MADRS score since baseline, and absolute change in MADRS score since baseline. For each outcome, a univariate additive regression model was fitted to assess the association, as well as a multivariate model, adjusted for age, gender, age at first depression episode, baseline MADRS and BDI scores. Additionally a mixed-effects longitudinal model was fit for MADRS scores at week 0 to week 12, using a random subject-specific intercept. Also here, both unadjusted and adjusted models were fit. […]"}}}
{"smiles": "CN(C)CCC[C@@]1(c2ccc(F)cc2)OCc2cc(C#N)ccc21", "note": "[escitalopram]", "values": [{"measurement": "decrease of relative MADRS score reduction from baseline per copy of the rs41271330 minor allele", "setting": "[1]", "value": 7, "unit": "%"}, {"measurement": "patients who discontinued treatment due to lack of efficacy or side effects", "setting": "[2]; 12-week study", "value": 6.7, "unit": "%"}, {"measurement": "decrease of relative MADRS score reduction from baseline per copy of the rs41271330 minor allele", "setting": "[2]; Estonian sample, 116 patients, SE=6%", "value": 18, "unit": "%"}, {"measurement": "patients who needed an increased dose after the initial 4 weeks", "setting": "[2]; carriers of rs41271330 minor allele", "value": 88.9, "unit": "%"}, {"measurement": "patients with moderate or severe depression (MADRS score 16 or more)", "setting": "[2]; carriers of rs41271330 minor allele (A), 14/27", "value": 52, "unit": "%"}, {"measurement": "patients with moderate or severe depression (MADRS score 16 or more)", "setting": "[2]; homozygous for rs41271330 major allele (G), 19/89", "value": 22, "unit": "%"}, {"measurement": "patients with insufficient or partial response to treatment", "setting": "[2]; end of week 12", "value": 32.6, "unit": "%"}, {"measurement": "patients defined as responders", "setting": "[2]; end of week 12, 10-20 mg/day, 135 MDD outpatients, at least 50% decrease in MADRS and HAM-D and CGI improvement 2 or less", "value": 60.7, "unit": "%"}, {"measurement": "patients who achieved remission", "setting": "[2]; end of week 12, MADRS less than 12 and HAM-D less than 8, of total sample", "value": 58.5, "unit": "%"}, {"measurement": "patients who needed an increased dose after the initial 4 weeks", "setting": "[2]; homozygous for rs41271330 major allele", "value": 62.9, "unit": "%"}, {"measurement": "responders among the patients whose daily dose was increased and kept at 20 mg", "setting": "[2]; of 85 patients on 20 mg, end of study", "value": 41, "unit": "patients"}, {"measurement": "number of patients with MADRS score at week 12 of 0...7", "setting": "[2]; rs41271330 A/G + A/A", "value": 9}, {"measurement": "number of patients with MADRS score at week 12 of 8...15", "setting": "[2]; rs41271330 A/G + A/A", "value": 4}, {"measurement": "number of patients with MADRS score at week 12 of 16...25", "setting": "[2]; rs41271330 A/G + A/A", "value": 10}, {"measurement": "number of patients with MADRS score at week 12 of >25", "setting": "[2]; rs41271330 A/G + A/A", "value": 4}, {"measurement": "share of patients with MADRS score at week 12 of 0...7", "setting": "[2]; rs41271330 A/G + A/A", "value": 33, "unit": "%"}, {"measurement": "share of patients with MADRS score at week 12 of 8...15", "setting": "[2]; rs41271330 A/G + A/A", "value": 15, "unit": "%"}, {"measurement": "share of patients with MADRS score at week 12 of 16...25", "setting": "[2]; rs41271330 A/G + A/A", "value": 37, "unit": "%"}, {"measurement": "share of patients with MADRS score at week 12 of >25", "setting": "[2]; rs41271330 A/G + A/A", "value": 15, "unit": "%"}, {"measurement": "number of patients with MADRS score at week 12 of 0...7", "setting": "[2]; rs41271330 G/G", "value": 61}, {"measurement": "number of patients with MADRS score at week 12 of 8...15", "setting": "[2]; rs41271330 G/G", "value": 9}, {"measurement": "number of patients with MADRS score at week 12 of 16...25", "setting": "[2]; rs41271330 G/G", "value": 15}, {"measurement": "number of patients with MADRS score at week 12 of >25", "setting": "[2]; rs41271330 G/G", "value": 4}, {"measurement": "share of patients with MADRS score at week 12 of 0...7", "setting": "[2]; rs41271330 G/G", "value": 69, "unit": "%"}, {"measurement": "share of patients with MADRS score at week 12 of 8...15", "setting": "[2]; rs41271330 G/G", "value": 10, "unit": "%"}, {"measurement": "share of patients with MADRS score at week 12 of 16...25", "setting": "[2]; rs41271330 G/G", "value": 17, "unit": "%"}, {"measurement": "share of patients with MADRS score at week 12 of >25", "setting": "[2]; rs41271330 G/G", "value": 4, "unit": "%"}]}
